Experimental data taken from the supplement of paper PMC8671470.

System: KG-1
Experiment: cell viability (% survival relative to DMSO control, bortezomib = 0%); higher = less cytotoxic
Conditions: 10000 nM; 72 h
In short: (§1)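 Fifteen myeloid leukaemia cell lines were exposed to compounds at 1, 10, 100, 1000 or 10000 nM in 384-well plates for 72 h at 37 °C and 5% CO2. Viability was read by CellTiter-Glo luminescence and normalised, with vehicle as 100% and a 10 µM positive control as 0%. Values are percent survival averaged over duplicates.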

SMILES | cell viability [%]
O=C(/C=C/c1cccnc1)NCCCCC1CCN(C(=O)c2ccccc2)CC1 [Daporinad] | 7.46
N=C(N)c1ccc(N=NNc2ccc(C(=N)N)cc2)cc1 [Diminazene] | 88.9
OCCN(CCO)c1nc(N2CCCCC2)c2nc(N(CCO)CCO)nc(N3CCCCC3)c2n1 [Dipyridamole] | 90.2
Cc1cc(O)c2c(c1)C(=O)c1cc(O)cc(O)c1C2=O [Emodin] | 94.9
N#Cc1ccc(C2CCCc3cncn32)cc1 (stereo not given) [Fadrozole] | 108
Cc1nc(-c2ccc(OCC(C)C)c(C#N)c2)sc1C(=O)O [Febuxostat] | 90.4

System: NOMO-1
Experiment: as above
Conditions: 1 nM; 72 h
In short: as §1

SMILES | cell viability [%]
CN(C)CCNC(=O)c1cccn2c(=O)c3cc4ccccc4cc3nc12 [Bmh-21] | 106
C=C1C(=O)O[C@H](CCCCCCCC)[C@H]1C(=O)O [C75] | 108
O=C(Cc1cccc(OC(F)(F)F)c1)Nc1ccc(CCCCc2nnc(NC(=O)Cc3ccccn3)s2)nn1 [CB-839] | 103
O=NN(CCCl)C(=O)NCCCl [Carmustine] | 102
O[C@H]1[C@H](O)[C@@H](O)CN2CC[C@H](O)[C@H]12 [Castanospermine] | 105
O=C(/C=C/c1cccnc1)NCCCCC1CCN(C(=O)c2ccccc2)CC1 [Daporinad] | 34.5
N=C(N)c1ccc(N=NNc2ccc(C(=N)N)cc2)cc1 [Diminazene] | 106
OCCN(CCO)c1nc(N2CCCCC2)c2nc(N(CCO)CCO)nc(N3CCCCC3)c2n1 [Dipyridamole] | 98
Cc1cc(O)c2c(c1)C(=O)c1cc(O)cc(O)c1C2=O [Emodin] | 99.1
N#Cc1ccc(C2CCCc3cncn32)cc1 (stereo not given) [Fadrozole] | 100
Cc1nc(-c2ccc(OCC(C)C)c(C#N)c2)sc1C(=O)O [Febuxostat] | 96.3

Same assay, conditions: 10 nM; 72 h

SMILES | cell viability [%]
CN(C)CCNC(=O)c1cccn2c(=O)c3cc4ccccc4cc3nc12 [Bmh-21] | 101
C=C1C(=O)O[C@H](CCCCCCCC)[C@H]1C(=O)O [C75] | 99.7
O=C(Cc1cccc(OC(F)(F)F)c1)Nc1ccc(CCCCc2nnc(NC(=O)Cc3ccccn3)s2)nn1 [CB-839] | 91.4
O=NN(CCCl)C(=O)NCCCl [Carmustine] | 103
O[C@H]1[C@H](O)[C@@H](O)CN2CC[C@H](O)[C@H]12 [Castanospermine] | 111
O=C(/C=C/c1cccnc1)NCCCCC1CCN(C(=O)c2ccccc2)CC1 [Daporinad] | 1.36
N=C(N)c1ccc(N=NNc2ccc(C(=N)N)cc2)cc1 [Diminazene] | 99
OCCN(CCO)c1nc(N2CCCCC2)c2nc(N(CCO)CCO)nc(N3CCCCC3)c2n1 [Dipyridamole] | 101
Cc1cc(O)c2c(c1)C(=O)c1cc(O)cc(O)c1C2=O [Emodin] | 100
N#Cc1ccc(C2CCCc3cncn32)cc1 (stereo not given) [Fadrozole] | 90.2
Cc1nc(-c2ccc(OCC(C)C)c(C#N)c2)sc1C(=O)O [Febuxostat] | 97.7

Same assay, conditions: 100 nM; 72 h

SMILES | cell viability [%]
CN(C)CCNC(=O)c1cccn2c(=O)c3cc4ccccc4cc3nc12 [Bmh-21] | 101
C=C1C(=O)O[C@H](CCCCCCCC)[C@H]1C(=O)O [C75] | 113
O=C(Cc1cccc(OC(F)(F)F)c1)Nc1ccc(CCCCc2nnc(NC(=O)Cc3ccccn3)s2)nn1 [CB-839] | 76.5
O=NN(CCCl)C(=O)NCCCl [Carmustine] | 104
O[C@H]1[C@H](O)[C@@H](O)CN2CC[C@H](O)[C@H]12 [Castanospermine] | 105
O=C(/C=C/c1cccnc1)NCCCCC1CCN(C(=O)c2ccccc2)CC1 [Daporinad] | 0.217
N=C(N)c1ccc(N=NNc2ccc(C(=N)N)cc2)cc1 [Diminazene] | 104
OCCN(CCO)c1nc(N2CCCCC2)c2nc(N(CCO)CCO)nc(N3CCCCC3)c2n1 [Dipyridamole] | 107
Cc1cc(O)c2c(c1)C(=O)c1cc(O)cc(O)c1C2=O [Emodin] | 103
N#Cc1ccc(C2CCCc3cncn32)cc1 (stereo not given) [Fadrozole] | 93.4
Cc1nc(-c2ccc(OCC(C)C)c(C#N)c2)sc1C(=O)O [Febuxostat] | 98.5

Same assay, conditions: 1000 nM; 72 h

SMILES | cell viability [%]
CN(C)CCNC(=O)c1cccn2c(=O)c3cc4ccccc4cc3nc12 [Bmh-21] | 45.9
C=C1C(=O)O[C@H](CCCCCCCC)[C@H]1C(=O)O [C75] | 100
O=C(Cc1cccc(OC(F)(F)F)c1)Nc1ccc(CCCCc2nnc(NC(=O)Cc3ccccn3)s2)nn1 [CB-839] | 79.2
O=NN(CCCl)C(=O)NCCCl [Carmustine] | 100
O[C@H]1[C@H](O)[C@@H](O)CN2CC[C@H](O)[C@H]12 [Castanospermine] | 105
O=C(/C=C/c1cccnc1)NCCCCC1CCN(C(=O)c2ccccc2)CC1 [Daporinad] | 0.164
N=C(N)c1ccc(N=NNc2ccc(C(=N)N)cc2)cc1 [Diminazene] | 102
OCCN(CCO)c1nc(N2CCCCC2)c2nc(N(CCO)CCO)nc(N3CCCCC3)c2n1 [Dipyridamole] | 92.3
Cc1cc(O)c2c(c1)C(=O)c1cc(O)cc(O)c1C2=O [Emodin] | 104
N#Cc1ccc(C2CCCc3cncn32)cc1 (stereo not given) [Fadrozole] | 100
Cc1nc(-c2ccc(OCC(C)C)c(C#N)c2)sc1C(=O)O [Febuxostat] | 99.6

Same assay, conditions: 10000 nM; 72 h

SMILES | cell viability [%]
CN(C)CCNC(=O)c1cccn2c(=O)c3cc4ccccc4cc3nc12 [Bmh-21] | -0.0945
C=C1C(=O)O[C@H](CCCCCCCC)[C@H]1C(=O)O [C75] | 109
O=C(Cc1cccc(OC(F)(F)F)c1)Nc1ccc(CCCCc2nnc(NC(=O)Cc3ccccn3)s2)nn1 [CB-839] | 68.2
O=NN(CCCl)C(=O)NCCCl [Carmustine] | 99
O[C@H]1[C@H](O)[C@@H](O)CN2CC[C@H](O)[C@H]12 [Castanospermine] | 86.7
O=C(/C=C/c1cccnc1)NCCCCC1CCN(C(=O)c2ccccc2)CC1 [Daporinad] | 0.267
N=C(N)c1ccc(N=NNc2ccc(C(=N)N)cc2)cc1 [Diminazene] | 86.9
OCCN(CCO)c1nc(N2CCCCC2)c2nc(N(CCO)CCO)nc(N3CCCCC3)c2n1 [Dipyridamole] | 81.9
Cc1cc(O)c2c(c1)C(=O)c1cc(O)cc(O)c1C2=O [Emodin] | 112
N#Cc1ccc(C2CCCc3cncn32)cc1 (stereo not given) [Fadrozole] | 105
Cc1nc(-c2ccc(OCC(C)C)c(C#N)c2)sc1C(=O)O [Febuxostat] | 93.1

System: MV4-11
Experiment: as above
Conditions: 1 nM; 72 h
In short: as §1

SMILES | cell viability [%]
CN(C)CCNC(=O)c1cccn2c(=O)c3cc4ccccc4cc3nc12 [Bmh-21] | 107
C=C1C(=O)O[C@H](CCCCCCCC)[C@H]1C(=O)O [C75] | 106
O=C(Cc1cccc(OC(F)(F)F)c1)Nc1ccc(CCCCc2nnc(NC(=O)Cc3ccccn3)s2)nn1 [CB-839] | 108
O=NN(CCCl)C(=O)NCCCl [Carmustine] | 96.3
